Laboratory results published in article PMC6160570, “Maprotiline Prevents Monocrotaline-Induced Pulmonary Arterial Hypertension in Rats” (Frontiers in Pharmacology, 2018).
Read-outs that look alike come from different tables or passages of the source.

Columns and labels:
[1] = target: T1, soluble guanylate cyclase (sGC), α1/β1 heterodimer (Homo sapiens, UniProt Q02108+Q02153); assay: SPR (Biacore T200, sGC immobilized on CM5 chip), positive control; format: binding; parameters: gene GUCY1B1; full-length recombinant sGC (α1 and β1 subunits coexpressed in Sf9 cells); with sGC α1 subunit (GUCY1A1, Q02108)
T1 sequence (Q02153 1-619): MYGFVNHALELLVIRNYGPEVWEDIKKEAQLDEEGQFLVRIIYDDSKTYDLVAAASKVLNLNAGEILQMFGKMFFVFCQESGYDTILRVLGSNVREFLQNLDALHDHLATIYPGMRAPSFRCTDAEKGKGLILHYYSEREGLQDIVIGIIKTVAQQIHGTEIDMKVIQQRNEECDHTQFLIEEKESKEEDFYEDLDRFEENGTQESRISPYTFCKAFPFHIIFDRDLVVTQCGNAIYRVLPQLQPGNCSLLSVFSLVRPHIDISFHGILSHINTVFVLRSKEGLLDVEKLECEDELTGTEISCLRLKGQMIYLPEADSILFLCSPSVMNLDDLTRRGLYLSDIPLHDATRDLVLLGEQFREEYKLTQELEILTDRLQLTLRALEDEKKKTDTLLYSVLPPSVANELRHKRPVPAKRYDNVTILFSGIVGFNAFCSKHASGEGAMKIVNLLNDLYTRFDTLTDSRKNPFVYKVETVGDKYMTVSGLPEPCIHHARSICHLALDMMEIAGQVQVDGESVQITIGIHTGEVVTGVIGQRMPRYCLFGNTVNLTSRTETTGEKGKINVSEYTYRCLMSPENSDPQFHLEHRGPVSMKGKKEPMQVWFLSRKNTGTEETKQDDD
T1 sequence (Q02108 1-690): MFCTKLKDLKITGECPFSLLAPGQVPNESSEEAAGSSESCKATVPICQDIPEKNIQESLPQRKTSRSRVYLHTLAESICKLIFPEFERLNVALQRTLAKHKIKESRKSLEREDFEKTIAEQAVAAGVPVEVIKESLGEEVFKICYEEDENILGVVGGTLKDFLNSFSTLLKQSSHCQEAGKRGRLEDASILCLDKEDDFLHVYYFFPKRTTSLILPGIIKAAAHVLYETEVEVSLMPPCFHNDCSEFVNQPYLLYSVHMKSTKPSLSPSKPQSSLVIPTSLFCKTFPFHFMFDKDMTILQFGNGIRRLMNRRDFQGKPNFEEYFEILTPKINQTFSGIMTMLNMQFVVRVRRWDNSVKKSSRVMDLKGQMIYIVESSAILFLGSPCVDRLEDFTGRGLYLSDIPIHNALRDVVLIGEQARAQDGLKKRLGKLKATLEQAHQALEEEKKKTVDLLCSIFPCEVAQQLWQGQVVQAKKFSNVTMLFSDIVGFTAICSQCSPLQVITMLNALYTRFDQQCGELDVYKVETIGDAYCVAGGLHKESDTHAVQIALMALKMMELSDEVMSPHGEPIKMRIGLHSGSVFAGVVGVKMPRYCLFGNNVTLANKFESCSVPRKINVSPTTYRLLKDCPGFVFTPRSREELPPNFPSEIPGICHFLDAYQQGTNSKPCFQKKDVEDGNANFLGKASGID

[2] = target: T1, soluble guanylate cyclase (sGC), α1/β1 heterodimer; parameters: gene GUCY1B1

| SMILES | Kd [1] [nM] | Kd [2] [nM] |
| --- | --- | --- |
| OCc1ccc(-c2nn(Cc3ccccc3)c3ccccc23)o1 [YC-1] | 2180 |  |
| CNCCCC12CCC(c3ccccc31)c1ccccc12 [maprotiline] |  | 307 |
